Target: T1, human P2Y12 receptor (Homo sapiens, UniProt Q9H244)
T1 construct: expressed in transfected cells; host or cells: Chinese Hamster Ovary (CHO) cells
Assay: P2Y12 receptor binding assay
Settings: CHO cells with recombinant human P2Y12 receptor; tritium-labeled 2-methyl-S-ADP; 2 hours at RT
Procedure: Chinese Hamster Ovary (CHO) cells with recombinant expression of the human P2Y12 receptor were cultured in 24 well cell-culture plates. Cells were washed three times with binding buffer (50 mM Tris pH 7.4, 100 mM NaCl, 1 mM EDTA, 0.5% BSA). The cells were then incubated with 0.5 ml per well binding buffer containing tritium-labeled 2-methyl-thio-adenosine 5′-diphosphate (2-methyl-S-ADP) (between 100'000 and 300'000 dpm per well) and various concentrations of test compounds. After incubation at RT for 2 hours, cells were washed three times with binding buffer. Then, cells were solubilized by addition of 0.5 ml solubilization buffer (SDS, NaOH, EDTA). The content of each well was then transferred into beta-counter vials and 2.0 ml of Ultima Gold Scintillation liquid was added.

T1 sequence (Q9H244 whole entry): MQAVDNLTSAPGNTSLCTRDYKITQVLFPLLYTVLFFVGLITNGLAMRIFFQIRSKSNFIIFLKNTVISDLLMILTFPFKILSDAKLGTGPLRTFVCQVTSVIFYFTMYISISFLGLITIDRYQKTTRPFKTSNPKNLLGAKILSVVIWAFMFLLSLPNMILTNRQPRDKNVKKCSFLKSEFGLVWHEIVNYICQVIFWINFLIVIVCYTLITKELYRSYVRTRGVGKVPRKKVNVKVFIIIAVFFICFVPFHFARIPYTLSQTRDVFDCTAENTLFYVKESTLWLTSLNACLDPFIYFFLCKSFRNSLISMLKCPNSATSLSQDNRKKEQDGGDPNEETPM

Structure (SMILES)	IC50 [µM]
CCOC(=O)N1CCN(C(=O)[C@H](CCC(=O)O)NC(=O)c2nc(-c3ccccc3)cc(C3CC3)c2OC)CC1 [Example 71, 4-{(S)-4-carboxy-2-[(4-cyclopropyl-3-methoxy-6-phenyl-pyridine-2-carbonyl)-amino]-butyryl}-piperazine-1-carboxylic acid ethyl ester]	0.51
CCCCNc1cc(C(=O)N[C@@H](CCC(=O)O)C(=O)N2CCN(C(=O)OCC)CC2)nc(-c2ccccc2)c1F [Example 75, 4-{(S)-2-[(4-butylamino-5-fluoro-6-phenyl-pyridine-2-carbonyl)-amino]-4-carboxy-butyryl}-piperazine-1-carboxylic acid ethyl ester]	0.386
CCOC(=O)N1CCN(C(=O)[C@H](CCC(=O)OC(C)(C)C)NC(=O)c2cc(Cl)cc(-c3ccccc3)n2)CC1 [Example 39, 4-{(S)-4-O-tert-butoxycarbonyl-2-[(4-chloro-6-phenyl-pyridine-2-carbonyl)-amino]-butyryl}-piperazine-1-carboxylic acid ethyl ester]	2.15
CCCCOC(=O)N1CCN(C(=O)[C@H](CCC(=O)OC(C)(C)C)NC(=O)c2cc(N3CC[C@H](OC)C3)cc(-c3ccccc3)n2)CC1 [Example 72, 4-((S)-4-tert-butoxycarbonyl-2-{[4-((S)-3-methoxy-pyrrolidin-1-yl)-6-phenyl-pyridine-2-carbonyl]-amino}-butyryl)-piperazine-1-carboxylic acid butyl ester]	1.76
CCOC(=O)N1CCN(C(=O)[C@H](CCC(=O)O)NC(=O)c2cc(Cl)cc(-c3ccccc3)n2)CC1 [Example 1, 4-{(S)-4-carboxy-2-[(4-chloro-6-phenyl-pyridine-2-carbonyl)-amino]-butyryl}-piperazine-1-carboxylic acid ethyl ester]	0.034

The remaining compounds from weak to strong by IC50, led by results:

IC50 [µM]	Structure (SMILES)
0.204	CCOC(=O)N1CCN(C(=O)[C@H](CO)NC(=O)c2cc(-c3ccccc3)cc(-c3ccccc3)n2)CC1 [Example 24, 4-{(S)-2-[(4,6-diphenyl-pyridine-2-carbonyl)-amino]-3-hydroxy-propionyl}-piperazine-1-carboxylic acid ethyl ester]
0.109	CCCCOC(=O)N1CCN(C(=O)[C@@H](NC(=O)c2cc(N3CC[C@H](OC)C3)cc(-c3ccccc3)n2)C(C)C)CC1 [Example 69, 4-((S)-2-{[4-((S)-3-methoxy-pyrrolidin-1-yl)-6-phenyl-pyridine-2-carbonyl]-amino}-3-methyl-butyryl)-piperazine-1-carboxylic acid butyl ester]
0.096	CCOC(=O)N1CCN(C(=O)[C@H](CCC(=O)O)NC(=O)c2cc(CCC(C)(C)O)cc(-c3ccccc3)n2)CC1 [Example 28, 4-((S)-4-carboxy-2-{[4-(3-hydroxy-3-methyl-butyl)-6-phenyl-pyridine-2-carbonyl]-amino}-butyryl)-piperazine-1-carboxylic acid ethyl ester]
0.094	CCOC(=O)N1CCN(C(=O)[C@H](CCC(=O)O)NC(=O)c2cc(OC3CCOC3)cc(-c3ccccc3)n2)CC1 (stereo partly drawn) [Example 37, 4-((S)-4-carboxy-2-{[6-phenyl-4-(tetrahydro-furan-3-yloxy)-pyridine-2-carbonyl]-amino}-butyryl)-piperazine-1-carboxylic acid ethyl ester]
0.067	CCOC(=O)N1CCN(C(=O)[C@H](CCC(=O)O)NC(=O)c2cc(-c3ccsc3)cc(-c3ccccc3)n2)CC1 [Example 32, 4-{(S)-4-carboxy-2-[(6-phenyl-4-thiophen-3-yl-pyridine-2-carbonyl)-amino]-butyryl}-piperazine-1-carboxylic acid ethyl ester]
0.04	CCOC(=O)N1CCN(C(=O)[C@H](Cc2nn[nH]n2)NC(=O)c2cc(-c3ccccc3)cc(-c3ccccc3)n2)CC1 [Example 66, 4-[(S)-2-[(4,6-diphenyl-pyridine-2-carbonyl)-amino]-3-(2H-tetrazol-5-yl)-propionyl]-piperazine-1-carboxylic acid ethyl ester]

Reference: patent US8093250B2, “2-aminocarbonyl-pyridine derivatives” (Actelion Pharmaceuticals Ltd., priority 2006, dated 2012)
